Assay results: US12060347B2 (BRISTOL-MYERS SQUIBB COMPANY, priority 2016, dated 2024)

target: T1, human PAR4 (Homo sapiens, UniProt Q96RI0); test: PAR4 FLIPR assay: antagonism of agonist-peptide-induced calcium mobilization in PAR4-expressing HEK293 cells; assay type: cell-based; settings: H-Ala-Phe(4-F)-[…]NH2-induced intracellular calcium mobilization, 11-point curves
T1 construct: expressed in transfected cells; host or cells: HEK293 PAR4 Clone 1.2A (BMS Arctic ID 383940)
T1 sequence (Q96RI0 18-385): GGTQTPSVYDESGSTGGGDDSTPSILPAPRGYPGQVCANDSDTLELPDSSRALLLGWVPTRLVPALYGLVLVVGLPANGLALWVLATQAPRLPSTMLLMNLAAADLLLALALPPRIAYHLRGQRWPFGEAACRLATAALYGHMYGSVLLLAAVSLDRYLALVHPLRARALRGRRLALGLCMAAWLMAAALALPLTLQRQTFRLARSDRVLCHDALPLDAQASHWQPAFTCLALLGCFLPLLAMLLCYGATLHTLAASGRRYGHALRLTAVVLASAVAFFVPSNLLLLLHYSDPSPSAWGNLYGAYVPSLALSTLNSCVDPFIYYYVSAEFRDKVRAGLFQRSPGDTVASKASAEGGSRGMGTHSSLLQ

Compound	IC50 [nM]
COCc1cnc2c(-c3nc4c(C)c(C)c(OC(C)C(C)O)cc4s3)cc(C)cc2n1 (mixture of isomers) [Example 323, 3-((2-(2-(methoxymethyl)-7-methylquinoxalin-5-yl)-4,5-dimethylbenzo[d]thiazol-6-yl)oxy)butan-2-ol]	15
COCc1cnc2c(-c3nc4c(C)c(C)c(OCC(C)O)cc4s3)cc(C)cc2n1 (racemic) [Example 322, 1-((2-(2-(methoxymethyl)-7-methylquinoxalin-5-yl)-4,5-dimethylbenzo[d]thiazol-6-yl)oxy)propan-2-ol]	5.1
COc1cnc2c(-c3nc4cc(F)c(OCC(COCC(C)C)OC(=O)Nc5cnc(C)nc5)cc4s3)cc(C)cc2n1 (racemic) [Example 525, 1-((5-fluoro-2-(2-methoxy-7-methylquinoxalin-5-yl)benzo[d]thiazol-6-yl)oxy)-3-isobutoxypropan-2-yl (2-methylpyrimidin-5-yl)carbamate (rac)]	2.3
COc1cnc2c(-c3nc4cc(F)c(O[C@@H](C)[C@@H](C)OC(=O)Nc5ccc(C(C)O)nc5)nc4s3)cc(C)cc2n1 (single isomer, unassigned) [Example 767]	3.4
CNC(=O)c1cnc2c(-c3nc4cc(F)c(O[C@@H](C)[C@@H](C)OC(=O)Nc5cnc(C)nc5)cc4s3)cc(C)cc2n1 (stereo in doubt) [Example 393, (2R,3S)-3-((5-fluoro-2-(7-methyl-2-(methylcarbamoyl)quinoxalin-5-yl)benzo[d]thiazol-6-yl)oxy)butan-2-yl (2-methylpyrimidin-5-yl)carbamate]	30
Cc1cc(-c2cc3ccccc3o2)c2ncc(OC(F)F)nc2c1 [Example 1, 5-(benzofuran-2-yl)-2-(difluoromethoxy)-7-methylquinoxaline]	29
COc1ccc2oc(-c3cc(C)cc4nc(OC(F)F)cnc34)cc2c1 [Example 2, 2-(difluoromethoxy)-5-(5-methoxybenzofuran-2-yl)-7-methylquinoxaline]	11
Cc1cc(-c2nc3ccccc3o2)c2ncc(OC(F)F)nc2c1 [Example 3, 2-(2-(difluoromethoxy)-7-methylquinoxalin-5-yl)benzo[d]oxazole]	240
Cc1cc(-c2nc3ccccc3s2)c2ncc(OC(F)F)nc2c1 [Example 4, 2-(2-(difluoromethoxy)-7-methylquinoxalin-5-yl)benzo[d]thiazole]	17
Cc1cc(-c2cc3ccccc3[nH]2)c2ncc(OC(F)F)nc2c1 [Example 5, 2-(difluoromethoxy)-5-(1H-indol-2-yl)-7-methylquinoxaline]	880
COc1ccc2oc(-c3cc(C)cc4nc(OC(F)F)cnc34)cc2c1OC [Example 6, 2-(difluoromethoxy)-5-(4,5-dimethoxybenzofuran-2-yl)-7-methylquinoxaline]	130
Cc1cc(-c2nc3ccc(OCc4ccccc4)cc3s2)c2ncc(OC(F)F)nc2c1 [Example 7, 6-(benzyloxy)-2-(2-(difluoromethoxy)-7-methylquinoxalin-5-yl)benzo[d]thiazole]	800
Cc1cc(-c2nc3c(Cl)cccc3s2)c2ncc(OC(F)F)nc2c1 [Example 8, 4-chloro-2-(2-(difluoromethoxy)-7-methylquinoxalin-5-yl)benzo[d]thiazole]	8.1
Cc1cc(-c2nc3ncccc3s2)c2ncc(OC(F)F)nc2c1 [Example 9, 2-(2-(difluoromethoxy)-7-methylquinoxalin-5-yl)thiazolo[4,5-b]pyridine]	220
Cc1cc(-c2nc3c(s2)CN(C(=O)OC(C)(C)C)CC3)c2ncc(OC(F)F)nc2c1 [Example 11, tert-butyl 2-(2-(difluoromethoxy)-7-methylquinoxalin-5-yl)-6,7-dihydrothiazolo[5,4-c]pyridine-5(4H)-carboxylate]	1700
COc1c(F)cc(F)c2nc(-c3cc(C)cc4nc(OC(F)F)cnc34)sc12 [Example 13, 2-(2-(difluoromethoxy)-7-methylquinoxalin-5-yl)-4,6-difluoro-7-methoxybenzo[d]thiazole]	3.5
Cc1cc(-c2nc3cccc(NC(=O)OC(C)(C)C)c3s2)c2ncc(OC(F)F)nc2c1 [Example 14, tert-butyl (2-(2-(difluoromethoxy)-7-methylquinoxalin-5-yl)benzo[d]thiazol-7-yl) carbamate]	6.8
Cc1cc(-c2nc3cccc(OCc4cscn4)c3s2)c2ncc(OC(F)F)nc2c1 [Example 15, 2-(2-(difluoromethoxy)-7-methylquinoxalin-5-yl)-7-(thiazol-4-ylmethoxy)benzo[d]thiazole]	38

Continued by falling IC50, values first:

IC50 [nM]	Compound
3.1	COCc1cnc2c(-c3nc4c(C)c(C)c(OC(C)CO)cc4s3)cc(C)cc2n1 (racemic) [Example 321, 2-((2-(2-(methoxymethyl)-7-methylquinoxalin-5-yl)-4,5-dimethylbenzo[d]thiazol-6-yl)oxy)propan-1-ol]
3.1	COc1cnc2c(-c3nc4cc(F)c(O[C@@H](C)[C@@H](C)OC(=O)Nc5ccc(C(=O)NCCO)nc5)cc4s3)cc(C)cc2n1 (stereo in doubt) [Example 392, (2R,3S)-3-((5-fluoro-2-(2-methoxy-7-methylquinoxalin-5-yl)benzo[d]thiazol-6-yl)oxy)butan-2-yl (6-((2-hydroxyethyl)carbamoyl)pyridin-3-yl)carbamate]
2.9	COc1cnc2c(-c3nc4cc(F)c(O[C@@H](C)[C@@H](C)OC(=O)Nc5ccc(C(C)O)nc5)nc4s3)cc(C)cc2n1 (single isomer, unassigned) [Example 766]
2.6	COc1cc(C(O)C(F)(F)F)c2nc(-c3cc(C)cc4nc(OC)cnc34)sc2c1 (single isomer, unassigned) [Example 633, 2,2,2-trifluoro-1-(6-methoxy-2-(2-methoxy-7-methylquinoxalin-5-yl)benzo[d]thiazol-4-yl)ethanol]
2.2	COc1cc(C)c2nc(-c3cc(C)cc4nc(OC(F)F)cnc34)sc2c1 [Example 10, 2-(2-(difluoromethoxy)-7-methylquinoxalin-5-yl)-6-methoxy-4-methylbenzo[d]thiazole]
2	COCC(COc1cc2sc(-c3cc(C)cc4nc(OC)cnc34)nc2cc1F)OC(=O)Nc1cccnc1 (racemic) [Example 516, 1-((5-fluoro-2-(2-methoxy-7-methylquinoxalin-5-yl)benzo[d]thiazol-6-yl)oxy)-3-methoxypropan-2-yl pyridin-3-ylcarbamate (rac)]
2	COc1cnc2c(-c3nc4cc(F)c(O[C@@H](C)[C@@H](C)OC(=O)Nc5ccc(C(N)=O)nc5)cc4s3)cc(C)cc2n1 (stereo in doubt) [Example 391, (2R,3S)-3-((5-fluoro-2-(2-methoxy-7-methylquinoxalin-5-yl)benzo[d]thiazol-6-yl)oxy)butan-2-yl (6-carbamoylpyridin-3-yl)carbamate]
2	COc1ccc(C)c2nc(-c3cc(C)cc4nc(OC(F)F)cnc34)sc12 [Example 12, 2-(2-(difluoromethoxy)-7-methylquinoxalin-5-yl)-7-methoxy-4-methylbenzo[d]thiazole]
1.4	COCc1cnc2c(-c3nc4c(C(O)C(C)(C)C)c(C)c(OC)cc4s3)cc(C)cc2n1 (racemic) [Example 328, 1-(6-methoxy-2-(2-(methoxymethyl)-7-methylquinoxalin-5-yl)-5-methylbenzo[d]thiazol-4-yl)-2,2-dimethylpropan-1-ol]
1.4	COc1ccc(NC(=O)OCC(C)Oc2cc3sc(-c4cc(C)cc5nc(OC)cnc45)nc3c(Cl)c2F)cn1 (racemic) [Example 381, 2-((4-chloro-5-fluoro-2-(2-methoxy-7-methylquinoxalin-5-yl)benzo[d]thiazol-6-yl)oxy)propyl (6-methoxypyridin-3-yl)carbamate]
1.3	COc1ccc(NC(=O)OC[C@H](C)Oc2cc3sc(-c4cc(C)cc5nc(OC)cnc45)nc3c(Cl)c2F)cn1 (single isomer, unassigned) [Example 382]
0.9	COc1cc(C(O)C2(C(F)(F)F)CCC2)c2nc(-c3cc(C)cc4nc(OC)cnc34)sc2c1 (single isomer, unassigned) [Example 664]
0.5	COCc1cnc2c(-c3nc4c(C(O)c5ccccc5)cc(OC)cc4s3)cc(C)cc2n1 (single isomer, unassigned) [Example 163, (6-methoxy-2-(2-(methoxymethyl)-7-methylquinoxalin-5-yl)benzo[d]thiazol-4-yl)(phenyl)methanol]
0.5	COCc1cnc2c(-c3nc4c(C(O)C(C)(C)C)cc(OC)cc4s3)cc(C)cc2n1 (single isomer, unassigned) [Example 164, 1-(6-methoxy-2-(2-(methoxymethyl)-7-methylquinoxalin-5-yl)benzo[d]thiazol-4-yl)-2,2-dimethylpropan-1-ol]
0.4	[2H]C(O)(c1cc(OC)cc2sc(-c3cc(C)cc4nc(COC)cnc34)nc12)C(C)(C)C (single isomer, unassigned) [Example 169, 1-(6-methoxy-2-(2-(methoxymethyl)-7-methylquinoxalin-5-yl)benzo[d]thiazol-4-yl)-2,2-dimethylpropan-1-ol-1-d1]
0.3	[2H]C([2H])([2H])OC([2H])([2H])c1cnc2c(-c3nc4c(C(O)C(C)(C)C)cc(OC)cc4s3)cc(C)cc2n1 (single isomer, unassigned) [Example 170, 1-(6-methoxy-2-(2-(methoxymethyl)-7-methylquinoxalin-5-yl)benzo[d]thiazol-4-yl)-2,2-dimethylpropan-1-ol-d5]
